Test [1] has as its system dopaminergic neurons within the substantia nigra. Kind of test: MPTP model of Parkinson's disease, TH+ neurons in SNc. The class given is in vivo, mice. Conditions: IP, BID; for rescue of TH+ neurons: 10 mg/kg/d; for dose showing significant neuroprotective activity: 21 d after MPTP. The source says:
The mouse model of neurogenesis involves protecting newborn hippocampal neurons from premature apoptotic cell death. We also sought to determine if P7C3-S243 could protect mature neurons from cell death. […] In the brain, MPTP is oxidized to 1-methyl-4-phenylpyridinium cation (MPP^+), which is selectively transported into dopaminergic neurons within the SNc.^xh Within these cells, MPP^+ acts as a mitochondrial poison, generating a pathology that resembles that of Parkinsonian patients.^xvii Under our assay conditions, treatment with drug was initiated a full 24 hours after the final dose of MPTP. This dosing regime ensures that any effect of the P7C3 class of compounds can be attributed to neuroprotective activity rather than to simply blocking the uptake or metabolism of MPTP.^xviii Mice were administered drug twice daily for 21 days, after which time they were sacrificed by transcardial perfusion. Fixed brains were sectioned through the SNc at […] intervals. Every fourth section was stained with antibodies specific to tyrosine hydroxylase (TH). The TH enzyme catalyzes the oxidation of L-tyrosine to L-DOPA, which is the first step in the biosynthesis of dopamine. Accordingly, the number of TH+ cells provides a quantification of the neuroprotective efficacy of P7C3 derivatives following MPTP exposure. Importantly, all microscopic analyses were performed blinded to treatment group.
To test efficacy of P7C3-S243 in the MPTP model of Parkinson's disease, mice were administered MPTP (30 mg/k/d) for 5 days. On the 6th day, treatment with drug was initiated at the indicated dose (IP, BID, 21 d). In FIG. 3 upper panel, bars indicate number of tyrosine hydroxylase positive cells detected by immunohistochemical staining of the substantia nigra; error bars indicate SEM; asterisks indicate p<0.01 (*), p<0.001 (**) or p<0.0001 (***) relative to the Veh+MPTP group; number of mice in each group are shown within the bars. In FIG. 3 lower panel, representative immunohistochemical pictures of TH staining in the SNc are shown for 5 mg/kg/d treatment groups; bar=[…]. […] Moreover, the enantiomeric specificity observed in the MPTP model of Parkinson's disease mirrored that observed in the mouse model of neurogenesis. […] In this side-by-side experiment, P7C3-S243 appears at least as effective as P7C3-A20, a compound that has proven efficacy in several animal models of neurodegenerative disease.
MPTP Assay. As previously reported,^5 adult male C57BI/6 mice were individually housed for one week and then injected daily for 5 days with 30 mg/kg/day (i.p.) free base MPTP (Sigma). On day 6, 24 hours after receiving the fifth and final dose of MPTP, daily treatment with compound was initiated. Mice received twice daily doses of each compound (or vehicle) for the following 21 days, after which mice were sacrificed by transcardial perfusion with 4% paraformaldehyde. Brains were dissected, fixed overnight in 4% paraformaldehyde, and cryprotected in sucrose for freezing by standard procedures. […] Images were analyzed with a Nikon Eclipse 90i motorized research microscope with Plan Apo lenses coupled with Metamorph Image Acquisition software (Nikon). TH+ neurons were counted with Image J software (NIH) in every section by 2 blinded investigators and results were averaged and multiplied by the sectioning interval to determine the total number of TH+ neurons per SNc.

In a further test the test system is blast-injured mice. Description: Barnes maze after blast-mediated TBI. Particulars: for time in escape quadrant, probe test: treatment immediately after blast-injury, 10 mg/kg/d IP, FIG. 21A. The class given is in vivo. The source says: Barnes maze: The Barnes maze evaluates cognition based on time spent in the escape area. There are 20 holes around the periphery of the round tabletop, one of which contains an escape chamber (shown in red), into which the animal is motivated to seek shelter after being placed on the open tabletop. The escape area is defined as 5 cm around the hole, and time spent in the escape area during the probe test is used to measure hippocampal-dependent memory, which is dependent on visual cue around the table.
To test the neuroprotective efficacy of P7C3-A20 and P7C3-S243, we employed a model of blast-induced TBI in which the blast wave is propagated following rupture of a mylar membrane (Mohan et al., 2013). Briefly, anesthetized mice are placed in an enclosed blast chamber constructed from an air tank partitioned into two sides. A sealed mylar membrane covers a small port between the two halves of the tank. When the pressure is increased in the side without the mouse, the membrane ruptures at ≈22 kilopascal (kPa), generating a blast wave that travels through the mouse's head. The head of the mouse is untethered and located in a padded holder, while the body is shielded from the blast by a metal tube. In all cases, the left side of the head faces the blast wave. As previously reported (Mohan et al., 2013), the intensity of the blast wave in our system is 149.8±2.09 kPa, and the duration of the total pressure (Blast wave+wind gust) is ≈10-15 milliseconds.
The Barnes maze consists of a circular table with holes equally spaced around the perimeter. One of these holes contains an escape cup, such that the mouse can enter the hole and hide in the cup to avoid exposure on the table. Testing in the Barnes maze was initiated 7 days after blast-injury. To begin, mice underwent 4 days of training, during which time they were allowed to find and enter the escape hole, and rest in the protective cup. By the 4th day of training, mice typically learn how to rapidly locate the escape hole, based on visual cues permanently positioned around the table throughout training. After 4 days of training, the cup is removed and the ability of the mouse to remember where the cup was previously located is assessed in the ‘probe test.’ Memory is reflected by measuring the amount of time the mouse spends in the area around where the cup was previously located.
Blast-Mediated Traumatic Brain Injury. Mice were anesthetized with ketamine/xylazine ([…] respectively) and placed in an enclosed blast chamber (50 cm long and 33 cm wide) constructed from an air tank partitioned into two sides. One side was pressurized with a 13 cm opening between the partitions, covered with a Mylar membrane. The unpressurized partition contained a restraint 10 cm from the Mylar membrane into which the mouse was placed. The head was freely moving while a metal tube shielded the body. Compressed air was forced in to the pressurized partition until the Mylar membrane bursts at 22 kPa. The blast wave impacts the test animal inside a foam-lined restraint to reduce blunt impact trauma of the head against the metal tube. The left side of the head was closest the origin of the blast wave. Sham-injured animals were anesthetized in the same way and not subjected to the blast.
Barnes Maze. The Barnes maze test assesses spatial learning and memory. It was conducted on a gray circular surface 91 cm in diameter with 20 holes 5 cm in diameter around the perimeter raised to a height of 90 cm (Stoelting Co.). The surface was brightly lit and open in order to motivate the test animal to learn the location of a dark escape chamber recessed under one of the 20 holes. The maze was placed inside a black circular curtain with four different visual cues (with different shapes and colors) for orientation to the permanent location of the escape chamber. Four days of training comprised of four trials per day were conducted for each animal. […]

The mark [2] stands for this setting: 3 and 30 mg/kg/d from 24 hours after injury.
[3] abbreviates: 3 and 30 mg/kg/d from 36 hours after injury.
[4] abbreviates: from 48 hours after injury, any dose.
Setting [5] is: single enantiomers, 3 mg/kg/d IP.

Entries after “also recorded” stand apart in the source; their conditions may differ.

With `COc1cccc(NCC(F)Cn2c3ccc(Br)cc3c3cc(Br)ccc32)c1` (stereo not shown) [P7C3-A20, N-(3-(3,6-dibromo-9H-carbazol-9-yl)-2-fluoropropyl)-3-methoxyaniline], the “rescue of TH+ neurons” value in test [1] (21 d) is “around 75%”. Also, the “dose showing significant neuroprotective activity” value in test [1] turned out to be 5 mg/kg/day. In addition, in the test on blast-injured mice, the “time in escape quadrant, probe test” value is given as “restored the time spent in the escape quadrant to normal levels”.

Consider `COc1cccc(NCC(F)Cn2c3ccc(Br)cc3c3cc(Br)ccc32)n1` (racemic) [P7C3-S243, N-(3-(3,6-dibromo-9H-carbazol-9-yl)-2-fluoropropyl)-6-methoxypyridin-2-amine], for which the “rescue of TH+ neurons” value in test [1] (21 d) is recorded as “over 85%”. For the same molecule, in test [1], the “dose showing significant neuroprotective activity” value is 1 mg/kg/day. The “learning (percent latency to escape)” value in the test on blast-injured mice (0.3 mg/kg/day from 24 hours after injury) is recorded as “learned significantly worse than sham-injury mice”; with blast-injured mice (30 mg/kg/day from 48 hours after injury) it was “restored normal learning”; in the test with blast-injured mice (1, 3, 10 or 30 mg/kg/day from 24 hours after injury), “learned the task as well as sham-injury mice”; with blast-injured mice (3 and 30 mg/kg/day from 36 hours after injury) it was “improved learning”. Further, the “percent quadrant time, probe test” value in the test with blast-injured mice (setting [2]) was “preserved a normal percent quadrant time”; with blast-injured mice (setting [3]), “only the higher dose was significantly protective”; in the test on blast-injured mice (IP 11 days, dose series, FIG. 23A), “dose-dependently preserved performance”; in the test with blast-injured mice (setting [4]), “no protective efficacy”. Moreover, the “percent target entry, probe test” value in the test on blast-injured mice (setting [2]) is “preserved a normal percent target entry”; with blast-injured mice (setting [3]), “only the higher dose was significantly protective”; in the test with blast-injured mice (IP 11 days, dose series, FIG. 22A), “dose-dependently preserved performance”; in the test on blast-injured mice (setting [4]), “no protective efficacy”. Moreover, the “memory in probe test” value is “did not preserve memory” in the test with blast-injured mice (IP from 24 hours after injury, 0.3 mg/kg/day) and “did not improve memory” with blast-injured mice (IP from 36 hours after injury, 3 mg/kg/day). Besides, the “percent time in escape area, probe test” value is recorded as “partial, though not statistically significant, protection” in the test with blast-injured mice (IP from 24 hours after injury, 1 mg/kg/day); “protected; also recorded: complete protection” in the test with blast-injured mice (IP from 24 hours after injury, 3, 10 and 30 mg/kg/day); “partially efficacious” in the test on blast-injured mice (IP from 36 hours after injury, 30 mg/kg/d); “no protective efficacy” in the test on blast-injured mice (IP from 48 hours after injury, any dose (3 or 30 mg/kg/d)). Also, in the test with blast-injured mice, the “time in escape quadrant, probe test” value is given as “restored the time spent in the escape quadrant to normal levels”.

For the molecule `COc1cccc(NCC(F)Cn2c3ccc(Br)cc3c3cc(Br)ccc32)n1` (single isomer, unassigned; (-)) [(−)-P7C3-S243, (−)-N-(3-(3,6-dibromo-9H-carbazol-9-yl)-2-fluoropropyl)-6-methoxypyridin-2-amine], the “neuroprotection by single enantiomers” value in test [1] (21 d, FIG. 3) is “strongly protective”. For the same molecule, the “memory in probe test” value in the test on blast-injured mice (oral from 24 hours after injury, 3, 10 and 30 mg/kg/day) is “preserved memory”; in the test on blast-injured mice (oral, 1 mg/kg/day), “did not preserve memory”. In addition, the “learning (percent latency to escape)” value in the test with blast-injured mice (oral, 1 mg/kg/day) is “restored normal learning”; in the test with blast-injured mice (oral, 1, 3, 10 and 30 mg/kg/day), “preserved of normal percent latency to escape”; in the test with blast-injured mice (single enantiomers, 3 mg/kg/day from 24 hours after injury) it was “learned the task as well as sham-injury mice”. Also, the “percent quadrant time, probe test” value in the test with blast-injured mice (oral, 3, 10 and 30 mg/kg/day) was “potent preservation”; in the test on blast-injured mice (setting [5]) it was “completely preserved normal performance”. In addition, the “percent target entry, probe test” value with blast-injured mice (oral, 3, 10 and 30 mg/kg/day) is “potent preservation”; in the test with blast-injured mice (setting [5]), “preserved normal performance”. In addition, the “percent time in escape area, probe test” value is on record as “complete protection” in the test with blast-injured mice (single enantiomers, IP from 24 hours after injury, 3 mg/kg/day) and “protective” in the test on blast-injured mice (single enantiomers, IP from 24 hours after injury, 3 mg/kg/day, listed as A, 3 mg/kg/day). Also, the “time in escape quadrant, probe test” value in the test with blast-injured mice was “nonsignificant trend”.
